Data taken from the supplement of paper PMC10307832.

Tests used:
Test in all cases: relative viability (nuclei count vs DMSO), 5 days (fraction); higher = more cells survive
Veliparib + Olaparib = compound: C[C@]1(c2nc3c(C(N)=O)cccc3[nH]2)CCCN1 [Veliparib] + O=C(c1cc(Cc2n[nH]c(=O)c3ccccc23)ccc1F)N1CCN(C(=O)C2CC2)CC1 [Olaparib] (partner 8 µM)
Method in brief: (§1)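 Nuclei were stained with Hoechst during a one-step fixation (final 0.05% Triton X-100, 1% formaldehyde, 1 ug/ml Hoechst) carried out 5 days after dosing, then counted on 4× images. The cells, lung cancer lines in 1536-well plates, had been dosed by pin tool the day after seeding with one drug alone or a fixed anchor-drug dose plus five library-drug doses (not always all listed) in √10 steps. Relative viability is the nuclei count in treated wells divided by that in vehicle wells, and each value is the median of duplicate plates.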

Veliparib + Crizotinib = compound: C[C@]1(c2nc3c(C(N)=O)cccc3[nH]2)CCCN1 [Veliparib] + C[C@@H](Oc1cc(-c2cnn(C3CCNCC3)c2)cnc1N)c1c(Cl)ccc(F)c1Cl [Crizotinib] (partner 1 µM)
Method in brief: as §1

[1] = compound: COC1=CC=C(C=C1)CN2C=CC3=C2C=C(C=C3)C(=O)NO + C[C@]1(O)C[C@@H](c2nc(-c3ccc4ccc(-c5ccccc5)nc4c3)c3c(N)nccn32)C1 [Linsitinib] (partner 1 µM)
Method in brief: as §1

Veliparib + Pemetrexed = compound: C[C@]1(c2nc3c(C(N)=O)cccc3[nH]2)CCCN1 [Veliparib] + Nc1nc2[nH]cc(CCc3ccc(C(=O)N[C@@H](CCC(=O)O)C(=O)O)cc3)c2c(=O)[nH]1 [Pemetrexed] (partner 0.2 µM)
Method in brief: as §1

Row | Cell Line | relative viability (Veliparib + Olaparib; first compound 0.06325 µM) | relative viability (Veliparib + Olaparib; first compound 0.2 µM) | relative viability (Veliparib + Olaparib; first compound 0.6325 µM) | relative viability (Veliparib + Olaparib; first compound 2 µM) | relative viability (Veliparib + Crizotinib; first compound 0.02 µM) | relative viability (Veliparib + Crizotinib; first compound 0.06325 µM) | relative viability (Veliparib + Crizotinib; first compound 0.2 µM) | relative viability (Veliparib + Crizotinib; first compound 0.6325 µM) | relative viability (Veliparib + Crizotinib; first compound 2 µM) | relative viability ([1]; first compound 0.08 µM) | relative viability ([1]; first compound 0.253 µM) | relative viability ([1]; first compound 0.8 µM) | relative viability ([1]; first compound 2.53 µM) | relative viability ([1]; first compound 8 µM) | relative viability (Veliparib + Pemetrexed; first compound 0.06325 µM) | relative viability (Veliparib + Pemetrexed; first compound 0.2 µM) | relative viability (Veliparib + Pemetrexed; first compound 0.6325 µM) | relative viability (Veliparib + Pemetrexed; first compound 2 µM) | relative viability (Veliparib + Olaparib; first compound 0.02 µM) | relative viability (Veliparib + Pemetrexed; first compound 0.02 µM)
1 | NCI-H1993 | 1.05 | 1.2 | 1.03 | 1.13 | 0.836 | 0.822 | 0.815 | 0.787 | 0.771 | 0.738 | 0.783 | 0.785 | 0.759 | 0.741 | 0.708 | 0.616 | 0.632 | 0.627 | – | –
2 | SK-MES-1 | 0.748 | 0.77 | 0.632 | 0.686 | 0.973 | 0.901 | 0.951 | 0.854 | 0.956 | 1.03 | 1.05 | 1.12 | 1.14 | 1.01 | 0.901 | 0.946 | 0.901 | 0.995 | 0.931 | 1
3 | NCI-H2023 | 0.477 | 0.439 | 0.446 | 0.439 | 0.567 | 0.616 | 0.635 | 0.567 | 0.601 | 0.576 | 0.645 | 0.64 | 0.7 | 0.637 | 0.212 | 0.27 | 0.221 | 0.231 | 0.486 | –
4 | EMC-BAC-2 | 0.427 | 0.483 | 0.455 | 0.495 | 0.771 | 0.649 | 0.754 | 0.737 | 0.779 | 0.686 | 0.867 | 0.839 | 0.814 | 0.839 | 0.408 | 0.438 | 0.442 | 0.502 | 0.539 | 0.492
5 | H3255 | 0.61 | 0.534 | 0.567 | 0.553 | 0.898 | 0.904 | 0.814 | 0.829 | 0.969 | 0.853 | 1.01 | 0.943 | 0.859 | 0.835 | 0.561 | 0.548 | 0.53 | 0.629 | 0.544 | 0.541
6 | SK-LU-1 | 0.415 | 0.491 | 0.364 | 0.424 | 1.15 | 0.924 | 1.07 | 0.848 | 0.803 | 0.998 | 1.3 | 1.08 | 1.29 | 0.888 | 1.03 | 1.15 | 0.92 | 0.981 | 0.492 | 0.963
7 | BEN | 1.15 | 1.12 | 0.92 | 1 | 0.735 | 0.97 | 1.01 | 0.783 | 0.884 | 0.87 | 0.875 | 0.904 | 0.869 | 0.907 | 0.771 | 0.743 | 0.795 | 0.631 | 0.799 | 0.576
8 | NCI-H1755 | 0.798 | 0.877 | 0.881 | 0.915 | 0.84 | 0.853 | 0.794 | 0.832 | 0.805 | 0.955 | 0.987 | 1 | 1.04 | 1.02 | 0.43 | 0.397 | 0.392 | 0.444 | 0.821 | 0.405
9 | NCI-H1944 | 0.437 | 0.418 | 0.388 | 0.385 | 0.995 | 1.04 | 0.951 | 0.965 | 0.976 | – | 1.18 | 1.38 | 1.21 | 1.1 | 0.695 | 0.547 | 0.607 | 0.615 | 0.433 | 0.596
10 | NCI-H322M | 0.737 | 0.786 | 0.74 | 0.715 | 0.895 | 0.83 | 0.948 | 0.919 | 0.945 | – | 0.934 | 0.931 | 0.946 | 0.926 | 0.582 | 0.611 | 0.568 | 0.614 | – | –
11 | NCI-H647 | 0.465 | 0.659 | 0.505 | 0.572 | 1.07 | 1.01 | 1.23 | 1.03 | 0.907 | 0.886 | 1.01 | 1.2 | 1.28 | 1.02 | 0.188 | 0.192 | 0.175 | 0.216 | 0.657 | 0.167
12 | LXF-289 | 1.04 | 1.01 | 0.986 | 1.16 | 0.784 | 0.777 | 0.818 | 0.727 | 0.83 | 0.456 | 0.951 | 0.998 | 0.986 | 0.959 | 1.02 | 0.913 | 0.856 | 0.997 | 1 | 0.897
13 | HCC-827 | 0.634 | 0.561 | 0.585 | 0.615 | 0.913 | 0.919 | 0.947 | 0.921 | 0.905 | 0.994 | 0.94 | 0.942 | 0.981 | 0.883 | 0.282 | 0.256 | 0.215 | 0.273 | 0.629 | 0.25
14 | NCI-H1734 | 0.577 | 0.666 | 0.567 | 0.691 | 0.701 | 0.641 | 0.728 | 0.623 | 0.682 | – | 0.953 | 0.871 | 0.93 | 0.855 | 0.396 | 0.398 | 0.389 | 0.392 | – | –
15 | NCI-H2087 | 0.484 | 0.642 | 0.589 | 0.681 | 0.729 | 0.722 | 0.831 | 0.806 | 0.61 | 0.902 | 0.969 | 0.95 | 0.883 | 0.921 | 0.601 | 0.639 | 0.622 | 0.635 | 0.648 | 0.715
